Read-outs that look alike come from different tables or passages of the source.
Key:
Human full-length Hsp90 = target: T1, Human full-length Hsp90 (Homo sapiens, UniProt P08238); assay: Fluorescence polarization assay (competitive binding to HSP90, probe RBT0045864-FAM)
T1 construct: E. coli expressed human full-length HSP90 protein, purified >95%; made in house; host or cells: E. coli
How it was run: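 Competitive fluorescence polarization: test compound displaces FAM-labelled probe RBT0045864-FAM (200 nM working solution) from HSP90 after equilibration, and anisotropy change is measured. Compounds serially diluted; BSA-containing buffer; standard compound as positive control; Z′ from zero and positive controls.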

[1] = Sulforhodamine B (SRB) growth inhibition / growth arrest assay; type: cell-based; settings: activity range
Protocol: A growth inhibition assay was also employed for the evaluation of candidate HSP90 inhibitors:
Assessment of Cytotoxicity by Sulforhodamine B (SRB) Assay: Calculation of 50% Inhibitory Concentration (IC50).
Day 1 • 1) Determine cell number by haemocytometer. • 2) Using an 8 channel multipipettor, add 160 μl of the cell suspension (3600 cells/well or 2×10^4 cells/ml) to each well of a 96-well microtitre plate. • 3) Incubate overnight at 37° C. in a CO2 incubator. Day 2 • 4) Stock solutions of drugs are prepared, and serial dilutions of each drug are performed in medium to give final concentrations in wells. • 5) Using a multipipettor, 40 μl of drug (at 5× final concentration) is added to quadruplicate wells. • 6) Control wells are at either side of the 96 well plates, where 40 μl of medium is added. • 7) Incubate plates in CO2 incubator for 4 days […]. […] Leave for 15 mins. • 12) Wash off unbound SRB stain with four washes of 1% acetic acid. • 13) Dry plates in incubator. • 14) Solubilise SRB using 100 μl of 10 mM Tris base and put plates on plate shaker for 5 mins. • 15) Determine absorbance at 540 nm using a plate reader. Calculate mean absorbance for quadruplicate wells and express as a percentage of value for control, untreated wells. • 16) Plot % absorbance values versus log drug concentration and determine the IC50.

[2] = fluorescence polarization assay, activity range, read-out: Hsp90 FP IC50

T1 sequence (P08238 whole entry): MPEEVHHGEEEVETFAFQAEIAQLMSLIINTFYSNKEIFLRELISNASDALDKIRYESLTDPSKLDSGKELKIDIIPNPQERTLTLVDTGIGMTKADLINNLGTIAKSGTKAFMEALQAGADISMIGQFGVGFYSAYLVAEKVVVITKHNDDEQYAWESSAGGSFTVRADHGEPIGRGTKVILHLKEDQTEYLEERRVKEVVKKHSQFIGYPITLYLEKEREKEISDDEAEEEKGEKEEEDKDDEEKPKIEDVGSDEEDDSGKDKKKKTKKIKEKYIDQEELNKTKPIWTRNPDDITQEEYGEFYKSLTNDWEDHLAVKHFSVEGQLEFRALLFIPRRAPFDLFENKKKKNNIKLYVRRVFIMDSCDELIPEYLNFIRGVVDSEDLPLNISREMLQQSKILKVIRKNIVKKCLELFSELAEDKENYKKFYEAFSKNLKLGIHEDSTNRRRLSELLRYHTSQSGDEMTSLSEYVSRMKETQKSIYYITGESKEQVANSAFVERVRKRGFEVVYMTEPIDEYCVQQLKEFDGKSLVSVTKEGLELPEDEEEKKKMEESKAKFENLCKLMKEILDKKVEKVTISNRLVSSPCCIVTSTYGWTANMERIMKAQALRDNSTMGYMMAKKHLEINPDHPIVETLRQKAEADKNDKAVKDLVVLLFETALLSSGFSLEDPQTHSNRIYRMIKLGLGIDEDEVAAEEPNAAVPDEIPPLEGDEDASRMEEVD

Row | IC50 (Human full-length Hsp90; [2]) [µM] | Compound | other results
1 | > 10 | CCOC(=O)c1cc2c(-c3ccc(C(F)(F)F)cc3)nc(N)nc2s1 [Example 2, 2-Amino-4-(4-trifluoromethyl-phenyl)-thieno[2,3-d]pyrimidine-6-carboxylic acid ethyl ester] | IC50 [1]: < 50 µM
2 | > 10 | CCOC(=O)c1cc2c(-c3cccc(C(N)=O)c3)nc(N)nc2s1 [Example 40] | 
3 | > 10 | CCOC(=O)c1cc2c(-c3ccc(OCc4ccccc4)cc3C)nc(N)nc2s1 [Example 90] | 
4 | < 10 | CCOC(=O)c1cc2c(C(=O)c3cc(C)c(C)cc3C)nc(N)nc2s1 [Example 308] | 
5 | < 10 | CCOC(=O)c1cc2c(-c3ncccc3C)nc(N)nc2s1 [Example 115] | 
6 | > 10 | CCOC(=O)c1cc2c(NCCCc3c[nH]nc3C)nc(N)nc2s1 [Example 37] | 
7 | < 10 | CCOC(=O)c1cc2c(-c3c(C)cc(C)cc3C)nc(N)nc2s1 [Example 77] | 
8 | < 10 | CCOC(=O)c1cc2c(C(C#N)c3ccccc3)nc(N)nc2s1 (stereo not shown) [Example 317] | 
9 | < 10 | CCOC(=O)c1cc2c(C(=O)c3ccccc3C)nc(N)nc2s1 [Example 311] | 
10 | > 10 | CCOC(=O)c1cc2c(Nc3ccc4cn[nH]c4c3)nc(N)nc2s1 [Example 39] | 
11 | < 10 | CCNC(=O)COc1ccc(-c2nc(N)nc3sc(C(=O)OCC)cc23)c(C)c1 [Example 195] | 
12 | > 10 | CCOC(=O)c1cc2c(-c3ccccc3CC)nc(N)nc2s1 [Example 76] | 
13 | < 10 | CCOC(=O)c1cc2c(C#N)nc(N)nc2s1 [Example 319, 2-Amino-4-cyano-thieno[2,3-d]pyrimidine-6-carboxylic acid ethyl ester] | 
14 | < 10 | CCOC(=O)c1cc2c(-c3cc(C)c(Br)cc3C)nc(N)nc2s1 [Example 105] | 
15 | < 10 | CCOC(=O)c1cc2c(C(=O)c3cccc(Cl)c3)nc(N)nc2s1 [Example 304] | 
16 | < 10 | CCOC(=O)c1cc2c(C(C)(O)c3ccc4c(c3)OCO4)nc(N)nc2s1 (stereo not shown) [Example 315, 2-Amino-4-(1-benzo[1,3]dioxol-5-yl-1-hydroxy-ethyl)-thieno[2,3-d]pyrimidine-6-carboxylic acid ethyl ester] | 

Further lines, the molecule ahead of its results:

Row | Compound | IC50 (Human full-length Hsp90; [2]) [µM] | other results
17 | Nc1nc(-c2ccc(Cl)cc2Cl)c2cc(C(=O)NCCS(N)(=O)=O)sc2n1 [Example 130] | < 10 | 
18 | CCNC(=O)c1cc2c(-c3cc(CNCc4ccc(S(N)(=O)=O)cc4)ccc3C)nc(N)nc2s1 [Example 207] | < 10 | 
19 | CCC/C=C/c1nc(N)nc2sc(C(=O)OCC)cc12 [Example 292] | > 10 | 
20 | CCN(CC)CCOc1cc(-c2nc(N)nc3sc(C(=O)NC(C)C)cc23)c(Cl)cc1Cl [Example 237, 2-Amino-4-[2,4-dichloro-5-(2-diethylamino-ethoxy)-phenyl]-thieno[2,3-d]pyrimidine-6-carboxylic acid isopropyl amide] | < 10 | 
21 | Nc1nc(-c2ccc(Cl)cc2Cl)c2cc(C(=O)NC(CO)CO)sc2n1 [Example 127] | < 10 | 
22 | CCNC(=O)c1cc2c(-c3cc(CNCc4cccnc4)ccc3C)nc(N)nc2s1 [Example 217] | < 10 | 
23 | CCNC(=O)c1cc2c(-c3cc(OCCN(C)C)c(Cl)cc3Cl)nc(N)nc2s1 [Example 254] |  | IC50 (Human full-length Hsp90): < 10 µM
24 | Nc1nc(-c2ccccc2)c2cc(C(=O)NC3CCCC3)sc2n1 [Example 62] | < 10 | 
25 | CCNC(=O)c1cc2c(-c3cc(CNCC4CCCO4)ccc3C)nc(N)nc2s1 (stereo not shown) [Example 212] | < 10 | 
26 | CCNC(=O)c1cc2c(-c3ccc(C#N)cc3Cl)nc(N)nc2s1 [Example 172] | < 10 | 
27 | CCNC(=O)c1cc2c(-c3cc(CNCCc4ccccc4)ccc3C)nc(N)nc2s1 [Example 215] | < 10 | 
28 | CCNC(=O)c1cc2c(-c3cc(OCCN4CCC(F)CC4)c(Cl)cc3Cl)nc(N)nc2s1 [Example 249] | < 10 | 
29 | Nc1nc(-c2ccc(Cl)cc2Cl)c2cc(C(=O)Nc3cc[nH]n3)sc2n1 [Example 143] | < 10 | 
30 | CCNC(=O)c1cc2c(-c3cc(OCC4CCCCN4C)c(Cl)cc3Cl)nc(N)nc2s1 (stereo not shown) [Example 273, 2-Amino-4-[2,4-dichloro-5-(1-methyl-piperidin-2-ylmethoxy)-phenyl]-thieno[2,3d]pyrimidine-6-carboxylic acid ethylamide] | < 10 | 
31 | COCCCNC(=O)c1cc2c(-c3ccc(Cl)cc3Cl)nc(N)nc2s1 [Example 126] | < 10 | 
32 | Nc1nc(-c2ccccc2)c2cc(C(=O)N3CCOCC3)sc2n1 [Example 70] | > 10 | 
33 | CCNC(=O)c1cc2c(-c3c(C)cccc3C)nc(N)nc2s1 [Example 73] | < 10 | 
